In the SangsterLogP compilation:

SMILES | logP
COP(=O)(OC)SCn1c(=O)oc2cc(Cl)cnc21 | 1.05
Fc1cccc(F)c1-c1nnc(-c2ccccc2Cl)nn1 | 3.3
O=C(NC(=O)c1c(F)cccc1F)Nc1ccc(OC(F)(F)C(F)OC(F)(F)F)c(Cl)c1 (centres undefined) | 5.27
CCOP(=O)(SC(C)CC)N1CCSC1=O (centres undefined) | 1.68
CCc1cccc(C)c1N(COC(C)C)C(=O)CCl | 3.5
CN(C)S(=O)(=O)N(SC(F)(Cl)Cl)c1ccccc1 | 3.7
O=C(NC(=O)c1c(F)cccc1F)Nc1ccc(Cl)c(Oc2ncc(C(F)(F)F)cc2Cl)c1 | 5.1
Cc1cccc(C)c1N(C(=O)CCl)C1CCOC1=O (centres undefined) | 1.39
Clc1ccc(CS/C(Cn2cncn2)=N\c2ccc(Cl)cc2Cl)cc1 | 4.94
